Converted amounts (≈) assume the structure as drawn. The source made the active and inactive calls. The calls are words filed in the database; no cut-off is given here.
Key:
[1] = Toxicity in mouse infected with Candida albicans assessed as morphological changes in kidney at 20 mg/kg, ip administered on days 2,4,6,8,10,12 and measured on day 14 by hematoxyin-eosin staining based analysis; assay type: organism-based; settings: in vivo, 312 h, time 13 day
Mus musculus [2] = assay: Anti-inflammatory activity in mouse infected with Candida albicans assessed as reduction in COX-2 expression in spleen at 20 mg/kg, ip administered on days 2,4,6,8,10,12 and measured on day 14 by immunohistochemical analysis; assay type: functional, organism-based; settings: time 13.0 day
Mus musculus [3] = assay: Immunomodulatory activity in mouse infected with Candida albicans assessed as increase in expression intensity of CD3+ T cells in spleen at 20 mg/kg, ip administered on days 2,4,6,8,10,12 and measured on day 14 by immunohistochemical staining analysis relative to fluconazole; assay type: functional, T-cell; settings: time 13 day
Candida albicans [4] = assay: Antifungal activity against Candida albicans infected in mouse assessed as increase in animal's body weight at 20 mg/kg, ip administered on days 2,4,6,8,10,12 and measured on day 14; assay type: functional, organism-based; settings: time 13.0 day
[5] = Drug uptake in Candida albicans ATCC SC5314 assessed as increase in red and green fluorescence intensity measured after 10 hrs by PI/Hoechst […] staining based fluorescence microscopy; assay type: ADME
Mus musculus [6] = assay: Immunomodulatory activity in mouse infected with Candida albicans assessed as increase in expression intensity of CD8+ T cells in spleen at 20 mg/kg, ip administered on days 2,4,6,8,10,12 and measured on day 14 by immunohistochemical staining analysis relative to control; assay type: functional, T-cell; settings: time 13 day
Mus musculus [7] = assay: Immunomodulatory activity in mouse infected with Candida albicans assessed as increase in expression intensity of CD3+ T cells in spleen at 20 mg/kg, ip administered on days 2,4,6,8,10,12 and measured on day 14 by immunohistochemical staining analysis relative to control; assay type: functional, T-cell; settings: time 13 day
Candida albicans [8] = assay: Antifungal activity against Candida albicans infected in mouse assessed as shrinkage of fungal infection region at 20 mg/kg, ip administered on days 2,4,6,8,10,12 and measured on day 14; assay type: functional, organism-based; settings: time 13.0 day
Pichia kudriavzevii = assay: Antifungal activity against Candida krusei ATCC 6258 assessed as inhibition of fungal growth measured after 72 hrs by CLSI based liquid medium dilution method; assay type: functional
[9] = Toxicity in mouse infected with Candida albicans assessed as morphological changes in lungs at 20 mg/kg, ip administered on days 2,4,6,8,10,12 and measured on day 14 by hematoxyin-eosin staining based analysis; assay type: organism-based; settings: in vivo, 312 h, time 13 day
[10] = Toxicity in mouse infected with Candida albicans assessed as morphological changes in liver at 20 mg/kg, ip administered on days 2,4,6,8,10,12 and measured on day 14 by hematoxyin-eosin staining based analysis; assay type: organism-based; settings: in vivo, 312 h, time 13 day
Candida albicans [11] = assay: Antifungal activity against Candida albicans infected in mouse assessed as reduction in fungal endogenous infection symptoms at 20 mg/kg, ip administered on days 2,4,6,8,10,12 and measured on day 14 by hematoxylin-eosin staining based analysis; assay type: functional, organism-based; settings: time 13.0 day
Mus musculus [12] = assay: Anti-inflammatory activity in mouse infected with Candida albicans assessed as reduction in IL-6R expression in spleen at 20 mg/kg, ip administered on days 2,4,6,8,10,12 and measured on day 14 by immunohistochemical analysis; assay type: functional, organism-based; settings: time 13.0 day
Mus musculus [13] = assay: Anti-inflammatory activity in mouse infected with Candida albicans assessed as reduction in IL-6R expression in infection tissues at 20 mg/kg, ip administered on days 2,4,6,8,10,12 and measured on day 14 by western blot analysis; assay type: functional, organism-based; settings: time 13.0 day
[14] = Hepatotoxicity in mouse infected with Candida albicans assessed as plasma AST level at 20 mg/kg, ip administered on days 2,4,6,8,10,12 and measured on day 14 (reference value: 53.4 +/-6.8 IU/L); assay type: toxicity, organism-based; settings: in vivo, 312 h, time 13 day
Candida albicans [15] = assay: Induction of apoptosis in Candida albicans assessed as viable cells measured after 24 hrs by Annexin V-FITC/PI staining based flow cytometry (reference value: 95.7%); assay type: functional
Candida albicans [16] = assay: Antifungal activity against Candida albicans infected in mouse assessed as reduction in total amount of fungal cells in infection region at 20 mg/kg, ip administered on days 2,4,6,8,10,12 and measured on day 14 by GMS staining based analysis; assay type: functional, organism-based; settings: time 13.0 day
[17] = molecular target: T1, Prostaglandin G/H synthase 2 (Homo sapiens, UniProt P35354); assay: Inhibition of COX2 (unknown origin) assessed as reduction in PGF2alpha content using arachidonic acid as substrate preincubated for 10 mins followed by substrate addition and measured after 2 mins by enzyme immunoassay
T1 sequence (P35354 whole entry): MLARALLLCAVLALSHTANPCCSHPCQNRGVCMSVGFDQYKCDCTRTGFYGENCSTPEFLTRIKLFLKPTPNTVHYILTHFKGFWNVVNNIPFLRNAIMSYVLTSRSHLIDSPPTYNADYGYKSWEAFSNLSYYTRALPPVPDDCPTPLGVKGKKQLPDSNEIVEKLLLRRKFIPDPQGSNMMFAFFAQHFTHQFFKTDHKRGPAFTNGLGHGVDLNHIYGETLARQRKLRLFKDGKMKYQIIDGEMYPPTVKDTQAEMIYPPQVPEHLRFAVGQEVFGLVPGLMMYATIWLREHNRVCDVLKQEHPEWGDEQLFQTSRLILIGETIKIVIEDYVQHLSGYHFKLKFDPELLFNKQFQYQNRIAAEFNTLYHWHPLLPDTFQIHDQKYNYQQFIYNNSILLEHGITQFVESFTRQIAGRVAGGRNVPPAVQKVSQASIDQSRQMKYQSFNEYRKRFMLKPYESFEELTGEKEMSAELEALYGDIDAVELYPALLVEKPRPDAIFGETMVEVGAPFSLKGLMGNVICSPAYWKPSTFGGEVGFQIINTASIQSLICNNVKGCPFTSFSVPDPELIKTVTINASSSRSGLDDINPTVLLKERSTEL

[18] = molecular target: Lanosterol 14-alpha demethylase (Candida albicans (strain SC5314 / ATCC MYA-2876) (Yeast), UniProt P10613); assay: Inhibition of CYP51 in Candida albicans ATCC SC5314 assessed as lanosterol content at 4 ug/ml measured after 48 hrs by GC-MS analysis; parameters: scale not given: the % may be the effect or the level left; settings: at 4 µg/mL
Chain of Lanosterol 14-alpha demethylase (P10613 whole entry): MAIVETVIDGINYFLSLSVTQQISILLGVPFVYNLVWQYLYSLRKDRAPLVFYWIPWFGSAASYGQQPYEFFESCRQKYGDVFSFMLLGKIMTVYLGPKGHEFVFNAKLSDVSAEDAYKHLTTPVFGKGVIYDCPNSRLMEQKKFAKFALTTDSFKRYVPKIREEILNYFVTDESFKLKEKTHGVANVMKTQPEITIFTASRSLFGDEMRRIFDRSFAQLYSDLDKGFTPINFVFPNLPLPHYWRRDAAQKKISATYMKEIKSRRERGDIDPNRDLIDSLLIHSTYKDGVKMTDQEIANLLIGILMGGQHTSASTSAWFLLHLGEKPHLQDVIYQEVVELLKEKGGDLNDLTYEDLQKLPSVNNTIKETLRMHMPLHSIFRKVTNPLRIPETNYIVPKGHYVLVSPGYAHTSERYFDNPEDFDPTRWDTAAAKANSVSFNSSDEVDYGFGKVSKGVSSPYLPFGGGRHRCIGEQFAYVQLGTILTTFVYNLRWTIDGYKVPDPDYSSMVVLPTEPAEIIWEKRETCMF

Candida albicans [19] = assay: Antifungal activity against Candida albicans infected in mouse assessed as disappearance of nuclear aggregation in the infection region at 20 mg/kg, ip administered on days 2,4,6,8,10,12 and measured on day 14 by GMS staining based analysis; assay type: functional, organism-based; settings: time 13.0 day
[20] = Increase in intracellular ROS level in Cryptococcus neoformans assessed as fold increase in fluorescence intensity measured after 12 hrs by fluorescence microscopic analysis relative to control; assay type: functional
[21] = Increase in intracellular ROS level in Candida albicans assessed as fold increase in fluorescence intensity measured after 12 hrs by fluorescence microscopic analysis relative to control; assay type: functional
Candida albicans [22] = assay: Antifungal activity against fluconazole-resistant Candida albicans 17# assessed as inhibition of fungal growth measured after 72 hrs by CLSI based liquid medium dilution method; assay type: functional
Candida albicans [23] = assay: Induction of apoptosis in Candida albicans assessed as late apoptotic cells measured after 24 hrs by Annexin V-FITC/PI staining based flow cytometry (reference value: 0.44%); assay type: functional
Candida albicans [24] = assay: Induction of mitochondrial membrane depolarization in Candida albicans assessed as fungal cells with depolarized mitochondria measured after 24 hrs by JC-1 staining based flow cytometry (reference value: 3.22%); assay type: functional

| Structure (SMILES) | Activity [1] | Activity (Mus musculus [2]) | fold change (FC) (Mus musculus [3]) | Activity (Candida albicans [4]) | Drug uptake [5] | fold change (FC) (Mus musculus [6]) | fold change (FC) (Mus musculus [7]) | Activity (Candida albicans [8]) | MIC50 (Pichia kudriavzevii) [µg/mL] | Activity (Candida albicans [11]) | Activity (Mus musculus [12]) | Activity (Mus musculus [13]) | Activity [14] [IU/L] | Activity (Candida albicans [15]) [%] | Activity (Candida albicans [16]) | Activity [18] [%] | Activity (Candida albicans [19]) | MIC50 (Candida albicans [22]) [µg/mL] | Activity (Candida albicans [23]) [%] | Activity (Candida albicans [24]) [%] | further results |
| --- | --- | --- | --- | --- | --- | --- | --- | --- | --- | --- | --- | --- | --- | --- | --- | --- | --- | --- | --- | --- | --- |
| C[C@H](C(=O)N(C)CC(O)(Cn1ccnc1)c1ccc(Cl)cc1Cl)c1cccc(C(=O)c2ccccc2)c1 (some centres undefined) | Non-Toxic | Active | 2.12 | Active | Active | 2.12 | 2.12 | Active | 0.125 (≈ 0.233 µM) | Active | Active | Active | 66.5 | 43.8 | Active | 38.57 | Active | 2 (≈ 3.73 µM) | 28.1 | 66.6 | Activity [9]: Non-Toxic; Activity [10]: Non-Toxic; IC50 [17]: 1930 nM; fold change (FC) [20]: 4; fold change (FC) [21]: 4 |
| OC(Cn1cncn1)(Cn1cncn1)c1ccc(F)cc1F [FLUCONAZOLE] | – | Active | – | Active | – | – | – | – | 1 (≈ 3.27 µM) | Active | Active | Active | 80.5 | 68.7 | Active | 35.17 | Active | > 8 | 5.96 | 19.1 | – |
| C[C@H](C(=O)N(C)CC(O)(Cn1ccnc1)c1ccc(Cl)cc1)c1ccc(-c2ccccc2)c(F)c1 (some centres undefined) | Non-Toxic | Active | 2.12 | Active | Active | 2.12 | 2.12 | Active | 0.25 (≈ 0.508 µM) | Active | Active | Active | 69.5 | 44.4 | Active | 39.74 | Active | 2 (≈ 4.07 µM) | 19.4 | 67.3 | Activity [9]: Non-Toxic; Activity [10]: Non-Toxic; IC50 [17]: 2290 nM; fold change (FC) [20]: 4; fold change (FC) [21]: 4 |

From ChEMBL document CHEMBL5214990, “Novel Aryl Alkamidazole Derivatives as Multifunctional Antifungal Inhibitors: Design, Synthesis, and Biological Evaluation” (J Med Chem, 2022)
